Experimental data as given in the METLIN SMRT retention time set (Domingo-Almenara et al. 2019).

Assay: gradient 5% acetonitrile 3 min, to 50% in 2 min, to 85% in 15 min, held 3 min, 100 µL/min
Settings: column: Zorbax Extend-C18 2.1 x 50 mm; eluents: water / acetonitrile, 0.1% formic acid
Procedure, shortened: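 Mixtures of ~100 pure standards were chromatographed on a Zorbax Extend-C18 column (2.1 × 50 mm, 1.8 μm) at 100 μL/min using water and acetonitrile, each with 0.1% formic acid. Detection used a quadrupole time-of-flight mass spectrometer in positive and negative ionization mode, and data collection spanned 3 months. Retention time was obtained from adduct peaks picked computationally and each checked manually.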

RP-LC retention time [s]	Compound
734	CCOc1cc(=O)n2c(c1C(=O)NC1CCCCC1)CCCCC2
758	CCc1ccc(NS(=O)(=O)c2cc(-c3[nH]ncc3C(=O)N3CCCC3)oc2C)cc1
818	COc1cccc(-n2c(N3CCCC(C(=O)NCC(C)C)C3)nc3ccsc3c2=O)c1 (configuration not stated)
879	O=C(CC1(O)C(=O)Nc2c(Cl)ccc(Cl)c21)c1ccc(Cl)cc1Cl (configuration not stated)
656	COc1ccc(S(=O)(=O)Nc2ccc(-c3cn4ccc(C)nc4n3)cc2)cc1
757	Cc1ccc(CNC(=O)N2CCC(N3CCN(Cc4cccc(F)c4)C(=O)C3=O)CC2)cc1
940	CCc1ccccc1S(=O)(=O)NCc1c(-c2ccccc2)nc2sc(C)nn12
840	Cc1ccc(Cn2c(=O)n(CCNC(=O)c3ccc(C)s3)c3ncccc32)cc1
840	Cc1cc(S(=O)(=O)N2CCC(n3cnnc3-c3ccccc3)CC2)ccc1F
591	COCCNC(=O)NCC(O)Cc1ccccc1 (configuration not stated)
848	Cc1ccc(-c2cn3c(C(=O)Nc4nc(C)cs4)csc3n2)cc1
941	COC(=O)C1=CN(c2ccc(C)c(C)c2)c2ccccc2S1(=O)=O
722	CCCn1c(=O)sc2cc(S(=O)(=O)N3CCN(C(=O)C4CCN(C(C)=O)CC4)CC3)ccc21
686	CSc1cccc(NC(=O)Cn2c(=O)cc(-c3nc(C4CC4)no3)c3ccccc32)c1
691	COc1ccc(-n2nnc(C(=O)O)c2-c2ccccc2)cc1OC
888	CCCn1cc(C2=CCN(C(=O)NCc3ccc(OC)cc3)CC2)c2cccnc21
769	Cc1cc(C)c(NC(=O)C2CCCN(c3nnc(C)c4c(C)n(-c5ccccc5)nc34)C2)c(C)c1 (configuration not stated)
760	COc1cccc(NC(=O)Cn2nc3cc(C)nc(N4CCCC4)n3c2=O)c1

RP-LC retention time [s]	Compound
1000	CCOc1ccccc1NC(=O)N1CCc2nc(-c3ccc(OC)cc3)ncc2C1
960	Cc1cccc(C)c1OCC(=O)N(Cc1ccc(Br)o1)C1CCS(=O)(=O)C1 (configuration not stated)
1140	CCc1cccc(NC(=O)Cn2nc3cc(C)nc(Nc4ccc(C)cc4)n3c2=O)c1
782	COc1ccc(-c2nc3ccc(C)cn3c2Nc2ccc(Cl)cc2)cc1
808	COc1cccc(C2c3c(oc4ccc(C)cc4c3=O)C(=O)N2CCCN2CCOCC2)c1OC (configuration not stated)
663	CCOc1cc(C(=O)N(CC)c2nc(-c3ccccc3)cs2)cc(OCC)c1OCC
688	O=C(c1cccs1)N1CCCC(c2nncn2-c2ccccc2)C1 (configuration not stated)
1360	CCCCOc1ccc(C(=O)Nc2nc3c(s2)CCc2ccc(OC)cc2-3)cc1
1210	CCOC(=O)c1c(C)oc2nc(C)nc(N3CCN(c4ccccc4F)CC3)c12
581	COCCC(=O)N1CC(c2nc(CCOC)no2)C1
754	CCN(CC)C(=O)CS(=O)Cc1cnn(-c2ccccc2)c1-n1cccc1 (configuration not stated)
1270	Cc1sc(C)c(S(=O)(=O)N2CCN(c3ccc(F)cc3)CC2)c1-c1cc(C(F)(F)F)on1
600	Cc1ccn2cc(C(=O)NC3CCCC3)nc2c1
973	O=C(Cc1ccccc1Br)Nc1cc(-c2cccs2)no1
710	Cc1nc(NS(=O)(=O)CCOc2ccc(F)cc2)sc1C
877	Fc1ccccc1-c1noc(-c2nc(-c3cnccn3)no2)n1
733	Cc1ccc(C2Cn3nnc(C(=O)N4CCC(C(=O)NC5CC5)CC4)c3CO2)cc1 (configuration not stated)
824	CCOc1cc(-c2ccc(C)cc2)nc2ccc(NC(=O)c3cccs3)cc12

Compound	RP-LC retention time [s]
COC(=O)c1cncn1C(C)c1ccccc1 (configuration not stated)	737
